Test results published in US6949528B1, “Compositions containing lysophosphatidic acids which inhibit apoptosis and uses thereof” (priority 1998, dated 2005).

Key:
C3H/10T1/2 cells = assay: Effect of proteins on anti-apoptotic activity of soy LPA, C3H/10T1/2 cell assay; type: cell-based; details: for Protein +10 (g/mL Soy LPA, percent cells saved from apoptosis): 1:10 soy-LPA to protein (weight:weight); for Protein +10 (g/mL Soy LPA, percent cells saved from apoptosis) / Protein Alone (0.01%), percent cells saved from apoptosis: 24 hours serum deprivation; for Increase with LPA: difference protein + soy LPA minus protein alone; for Protein Alone (0.01%), percent cells saved from apoptosis: protein without LPA; for enhancement of the anti-apoptotic activity of soy-LPA (more than additive protection): soy-LPA added together with protein
Experimental: Soy derived LPA (soy-LPA) (Avanti® Polar Lipids, Inc., Alabaster, Ala.) was stored in an organic solution and was dried immediately prior to assay using a Speed Vac (Savant Instruments, Hicksville, N.Y.). Tested proteins were resuspended at 10_mg/mL in a bicarbonate buffered saline/EDTA solution (50_mM NH4HCO3, […] NaCl, 250_(M EDTA) prior to being added to dried soy-LPA at a 1:10_soy-LPA to protein (weight:weight) ratio. The mixture was then sonicated for 5 minutes using a high power 80 Watt sonication bath (Laboratory Supplies Co., Hicksville, N.Y.). Following sonication, concentrated LPA/protein mixtures were left standing for 15 minutes at room temperature prior to dilution in cell culture assay media.
The effect of various proteins on the ability of LPA to protect serum-starved cells from apoptotic death was measured using the C3H/10T1/2 cell assay, performed as described in Example 2, above. Log phase cells were seeded in 60 mm Petri dishes at 175-350 cells per cm^2 and maintained in Basal Medium Eagle (BME) supplemented with 10% fetal calf serum (Hyclone, Logan, Utah). At time zero, serum containing media was replaced with sterile filtered BME containing the LPA/protein mixture to be tested. After 24 hours of treatment, serum deprived release (SDR) cells (the apoptotic cell population) and adherent (ADH) cells were separated and counted using an electronic cell counter (Coulter Corporation, Hialea, Fla.). SDR cells were counted with the lower threshold setting at 6.3_(m and were defined as the apoptotic cells dying in response to cultivation in serum-free-media. Approximately 95% of the SDR cells are confirmed to be apoptotic as previously shown by size, ultrastructure and DNA fragmentation analysis. Adherent cells were removed by treatment with a Hanks' balanced salt solution containing 0.05% trypsin and 0.53_mM EDTA and were counted with the lower threshold setting at 11.01_(m. All samples were tested in triplicate and serum-deprived controls (BME only) were assayed at both the beginning and end of each experiment.

[1] = Electrophoresis radiobinding assay (native polyacrylamide gel); type: binding; details: FIG. 9 and other experiments
Experimental: Electrophoresis radiobinding assay. Proteins were analyzed on native polyacrylamide gels following incubation with ^3H-labeled 18:1-LPA. ^3H-labeled lysophosphatidic acid (1-oleyl) (DuPont NEN Products, Boston, Mass.) was added to tested proteins at 1 nM labeled 18:1-LPA/45_(g protein. Mixtures were incubated at a bicarbonate buffered saline/EDTA solution at 37° C. for 60 minutes. Incubated samples were mixed with native gel sample buffer (312_mM Tris pH 6.8, 50% glycerol, 0.05% bromophenol blue) and loaded entirely onto an 8% discontinuous native polyacrylamide gel. Following electrophoresis, proteins were fixed into the gels using an aqueous solution consisting of glacial acetic acid, 10% (vol/vol) and methan 130% (vol./vol.) solution. Fixed gels were then incubated for 60 minutes in autoradiography enhancer (EN^3HANCE, DuPont NEN Products, Boston, Mass.), and dried onto 3M chromatography paper (Whatman, Clifton, N.J.) and exposed to autoradiography film (X-Omat, Kodak, Rochester, N.Y.) for 72 hours at −80° C.

[2] = Size shift assay (Superdex S75 column); type: binding; details: FIGS. 10A-10D
Experimental: Size shift assay. Size analysis of LPA both with and without protein was performed using a Superdex® S75 column (Pharmacia Biotech, Uppsala, Sweden). Soy LPA was combined in a chloroform solution with 0.5 Ci^3H-labeled 18:1-LPA (DuPont NEN Products, Boston, Mass.), dried under vacuum and resuspended by sonication in a buffered solution (50 mM ammonium bicarbonate, 154 mM sodium chloride, pH 8.0) in the presence or absence of test protein. The ammonium bicarbonate/sodium chloride solution was used as the mobile phase at a flow rate of 1 ml/min. One-minute fractions were collected for 30 minutes following sample injection. Fractions were counted in scintillant solution using a liquid scintillation counter (Beckman Instrument, Irvine, Calif.). Calibration was performed using a standard solution containing purified proteins (BioRad, Hercules, Calif.).

| Molecule | Protein +10 (g/mL Soy LPA, percent cells saved from apoptosis) (C3H/10T1/2 cells) | Increase with LPA (C3H/10T1/2 cells) | Protein Alone (0.01%), percent cells saved from apoptosis (C3H/10T1/2 cells) | enhancement of the anti-apoptotic activity of soy-LPA (more than additive protection) (C3H/10T1/2 cells) | binding to 18:1-LPA, detectable band [1] | elution profile / binding of LPA to protein [2] |
| --- | --- | --- | --- | --- | --- | --- |
| Acyl Carrier Protein: acyl carrier protein from E. coli | 36.2% | +28.1% | 8.1% | to a lesser degree | did not yield detectable bands |  |
| Albumin (Fatty Acid Depleted): fatty acid depleted (FAD) bovine serum albumin (BSA) | 58.7% | +57.8% | 0.9% |  | bind to 18:1-LPA | most of the LPA was bound to BSA |
| Cytochrome C: cytochrome C from bovine heart | 54.6% | +38.4% | 16.2% |  |  | LPA does not bind to this protein |
| α-fetoprotein: α-fetoprotein from fetal bovine serum (protein, UniProt Q3SZ57 19-610, looked up) Alpha-fetoprotein: RTMHKNAYGIDSILDSSPCSSGTNLVGLATIFFAQSVQGATYEEVSQMVKDVLTIIEKPTGSKQPAGCLENQVSAFLEEICREKEIPEKYGLSDCCSRTGEERHDCFLAHKKAAPASIPPFPVLEPVTSCKSYKENRELFINRYIYEIARRHPVLYAPTILSVANQYNKIIPHCCKAENATECFETKVTSITKELRESSLLNQHICAVMGKFGPRTFRAITVTKVSQKFPKANFTEIQKLVMDVAHIHEECCKGNVLECLQDGERVMSYICSQQDILSRQIAECCKLPTTLELGHCIIHAENDDKPEGLSPNVNRFLGDRDFNQLSSRDKDLSMARFTYEYSRRHTKLAVPIILRVAKGYQELLEKCSQSENPSECQDKGEEELEKYIQESQALAKRSCGLFQKLGEYYLQNAFLVAYTKKAPQLTSPELMALTRKMANAGAICCHLSEDKQLACGEGVADLIIGHLCIRHEENPINPGVDQCCTSSYSNRRPCFSSLVVDETYVPPPFSDDKFIFHKDLCQVQGVPLQTMKQQFLINLVKQKPQITEEQLETVVADFSGLLEKCCQSQEQEVCFTEEGPALISKTRAALGV |  |  |  |  | bind to 18:1-LPA |  |
| Ovalbumin: ovalbumin from chicken egg (protein, UniProt P01012 2-386, looked up) Ovalbumin: GSIGAASMEFCFDVFKELKVHHANENIFYCPIAIMSALAMVYLGAKDSTRTQINKVVRFDKLPGFGDSIEAQCGTSVNVHSSLRDILNQITKPNDVYSFSLASRLYAEERYPILPEYLQCVKELYRGGLEPINFQTAADQARELINSWVESQTNGIIRNVLQPSSVDSQTAMVLVNAIVFKGLWEKAFKDEDTQAMPFRVTEQESKPVQMMYQIGLFRVASMASEKMKILELPFASGTMSMLVLLPDEVSGLEQLESIINFEKLTEWTSSNVMEERKIKVYLPRMKMEEKYNLTSVLMAMGITDVFSSSANLSGISSAESLKISQAVHAAHAEINEAGREVVGSAEAGVDAASVSEEFRADHPFLFCIKHIATNAVLFFGRCVSP | 15.I | +7.2% | 7.9% | did not enhance | produce a detectable band |  |
